± gives the expanded uncertainty stated by the source.
Assay: molar enthalpy of vaporization or sublimation
Conditions: 298.15 K, Calvet microcalorimetry

SMILES	molar enthalpy (Liquid)	molar enthalpy (Crystal)
Oc1ccccc1F [2-fluorophenol]	12.5 ± 0.382 kcal/mol	
Oc1ccc(F)cc1 [4-fluorophenol]		17.7 ± 0.669 kcal/mol
Oc1cccc(F)c1 [3-fluorophenol]	14.4 ± 0.43 kcal/mol	

— the NIST ThermoML archive (doi:10.1021/je9000872)
